Source: patent publication US12616704B2, “Cannabichromene formulation for pain management” (Zyus Life Sciences Inc., priority 2020, dated 2026)

Legend:
[1] = tested on: SNL-induced motor phenotype; assay: Fine motor kinematic gait analysis (MotoRater) in SNL model; assay type: in vivo, Sprague-Dawley rats; settings: for Overall kinematic gait score, Vehicle vs. treatment: Summary / Overall kinematic gait score, Vehicle vs. treatment: Predicted (LS) mean diff.: between groups
Description: The treatment groups received the following test article mixtures: • Group 1: treated with vehicle (0.9% saline) • Group 2: treated with Pregabalin (50 mg/kg) • Group 3: treated with CBC (10 mg/kg)
Administration of Treatments. CBC (cannabichromene) formulation, the vehicle, or pregabalin treatment was administered according to Table 1 on study day 8 to all study animals, and on study day 10 to 6 animals per group. The dousing route of CBC or the vehicle were intragastric (p.o.), while pregabalin was administered intraperitoneally (i.p.). In addition to D8, pregabalin was administered on D9, at 2 h prior to the evf test. All animals of the pregabalin group were euthanized on D9, following the last test trial. The CBC was dissolved and diluted to one of the following vehicles:
Fine Motor Kinematic Gait Analysis. The subjected to gait analysis at the baseline and on study days 8, 9, 11, 14 and 17, at a minimum of 30 min after the evF test. The assay was carried out by MotoRater (TSE Systems, Homburg, Germany), with the walking mode. Prior to commencing the test, the essential body points (e.g. joints, limbs, nose, tail) were marked for tracking. The information of the gait performance was captured using a high speed camera (300 frames/second) from below and both sides. Next, the captured videos are converted to custom software. The raw data was obtained by tracking the marked points of the body from the videos recorded from all 3 dimensions. The raw data thus comprise correlation of the movements of different body points in coordinates related to the ground and each three dimensions.
Different gait patterns and movements were analyzed using a custom made automated analysis system. Information about altogether over a hundred kinematic parameters were attained. These comprised e.g:
All MotoRater data were analyzed for the distinct parameters, as well as for all combined parameters, using principal component analysis (PCA). The obtained results produce the model phenotype in gait analysis i.e. the difference between vehicle and cannabinoid treated animals regarding both individual parameters and PCA.
In addition to the baseline test, the motorater test was performed altogether four times over the course of behavioral study phase: • on D7, to assess the model-specific motor defects prior to dosing, • on D8, after finishing the 4-h evF, • on D8, after finishing the 8-h evF, and • on D9, after finishing the 24-h evF.
The kinematic assay was not performed to the animals before a minimum of 30 min after evF test.

[2] = tested on: SNL model effect; assay: Data mining (cPCA) of kinematic gait data: SNL model (analgesic) and sedation effect scores; assay type: in vivo, rats; settings: pregabalin 50 mg/kg
Description: Data mining was successfully performed to extend the multivariate kinematic data analysis and capture the analgesic effect of cannabichromene (CBC) on quantitative measurement of parameters attributed to the temporal aspects of motion to evaluate temporal aspects of motion, such as positions, angles, velocities, and accelerations of body segments and joints during motion.
Overall, 97 gait parameters were analyzed, and each parameter was averaged within each treatment group. A statistical method using Contrastive Principal Component Analysis (cPCA) was employed (Abid et al., 2018). The method of cPCA was designed to identify different combinations of original variables linked to the Spinal Nerve Ligation (SNL) model effect (pain) and learning effect. An orthogonalization procedure was then performed to create the obtained effects independent of learning and possible sedation. After the contrastive principal components (cPCs) (Model, Sedative) were established, the corresponding cPC scores were computed for each observation. The obtained cPC scores were further analyzed by using mixed two-way ANOVA followed by Dunnett's test of the estimated marginal means. The cPCA based analysis framework was implemented using R environment (R version 3.6.3). Statistical analysis was performed using Ime4 (Bates et al., 2015) and emmeans (R package version 1.4.5.) packages. The results of these comparisons were obtained by using all the previously identified components: model effect, learning effect and model orthogonal to learning.

[3] = Body weight monitoring in SNL study; assay type: in vivo, Sprague-Dawley rats; settings: SNL rats; CBC 10 mg/kg, pregabalin 50 mg/kg; two-way ANOVA, Tukey's
Description: Body Weight Monitoring. The body weight of the animals was recorded at baseline evF testing, on the day of surgery (DO), and daily thereafter.

[4] = BL (before dosing), vehicle vs. pregabalin group
[5] = D 7 (pre-dosing), vehicle vs. pregabalin group
[6] = within group, CBC 10 mg/kg p.o., pregabalin 50 mg/kg i.p.
[7] = within group, z-score, CBC 10 mg/kg p.o., pregabalin 50 mg/kg i.p.

CC(C)C[C@H](CN)CC(=O)O [Pregabalin, pregabalin, reference compound]
Duty Cycle [%]: Stats [1, 4]: 2.77
Duty Cycle, Fore [%]: Stats [1, 4]: 3.26
Mean Hip Jerk [m/s3]: Adjusted p-value [1, 4]: 0.001
Mean Hip Jerk [m/s3]: Adjusted p-value Sig? [1, 4]: *** (*** p≤0.001)
Mean Hip Jerk [m/s3]: Stats [1, 4]: −3.75
Mean Hip Jerk [m/s3]: p-value [1, 4]: 0.001
Knee ROM Deviation [degree]: Stats ([1]; BL (before dosing), vehicle vs. treatment group): 3.23
Overall kinematic gait score, Vehicle vs. treatment: Summary ([1]; Baseline (before SNL and dosing)): * (p<0.05, significant)
Overall kinematic gait score, Vehicle vs. treatment: Predicted (LS) mean diff. ([1]; Baseline (before SNL and dosing), z-score): −2.013
Overall kinematic gait score, Vehicle vs. treatment: Summary ([1]; D7 (pre-dosing)): ns
Paw Trajectory Shape 25%, Hind [%]: Stats [1, 5]: −3.01
Relative Trajectory Length, Fore: Stats [1, 5]: −3.26
Overall kinematic gait score, Vehicle vs. treatment: Predicted (LS) mean diff. ([1]; D7 (pre-dosing), z-score): −0.5896
Overall kinematic gait score, Vehicle vs. treatment: Summary ([1]; D8 5 h, CBC 10 mg/kg p.o., pregabalin 50 mg/kg i.p.): ns
Ankle Angle, Min [degree]: Stats ([1]; D 8 5 h, vehicle vs. pregabalin 50 mg/kg): −2.99
Ankle Angle, Max [degree]: Stats ([1]; D 8 5 h, vehicle vs. treatment, CBC 10 mg/kg, pregabalin 50 mg/kg): −3.74
Overall kinematic gait score, Vehicle vs. treatment: Predicted (LS) mean diff. ([1]; D8 5 h, z-score, CBC 10 mg/kg p.o., pregabalin 50 mg/kg i.p.): −0.2262
Overall kinematic gait score, Vehicle vs. treatment: Summary ([1]; D8 9 h, CBC 10 mg/kg p.o., pregabalin 50 mg/kg i.p.): ns
Hip ROM [degree]: Stats ([1]; D 8 9 h, vehicle vs. pregabalin 50 mg/kg): 2.85
Overall kinematic gait score, Vehicle vs. treatment: Predicted (LS) mean diff. ([1]; D8 9 h, z-score, CBC 10 mg/kg p.o., pregabalin 50 mg/kg i.p.): −0.8408
Overall kinematic gait score, Vehicle vs. treatment: Summary ([1]; D9, CBC 10 mg/kg p.o., pregabalin 50 mg/kg i.p.): ns
Overall kinematic gait score, Vehicle vs. treatment: Predicted (LS) mean diff. ([1]; D9, z-score, CBC 10 mg/kg p.o., pregabalin 50 mg/kg i.p.): −0.8531
Overall kinematic gait score, D7 vs. D8 5 h: Summary [1, 6]: ns
Overall kinematic gait score, D7 vs. D8 9 h: Summary [1, 6]: ** (p<0.01, very significant)
Overall kinematic gait score, D7 vs. D9: Summary [1, 6]: ns
Overall kinematic gait score, D7 vs. Baseline: Summary ([1]; within group, before dosing): ** (p<0.01, very significant)
Overall kinematic gait score, D7 vs. D8 5 h: Predicted (LS) mean diff. [1, 7]: −1.135
Overall kinematic gait score, D7 vs. D8 9 h: Predicted (LS) mean diff. [1, 7]: −2.27
Overall kinematic gait score, D7 vs. D9: Predicted (LS) mean diff. [1, 7]: −1.271
Overall kinematic gait score, D7 vs. Baseline: Predicted (LS) mean diff. ([1]; within group, z-score, before dosing): 1.964
analgesic or sedative effect in fine motor kinematic performance [2]: no analgesic or sedative effect
body weight vs. vehicle over the course of the study [3]: not significantly different
